The text below walks through data of patent US10377753B2, “Substituted 4-azaindoles and their use as GluN2B receptor modulators” (Janssen Pharmaceutica NV, priority 2015, dated 2019).

Chain of cloned human NR1/NR2B ion channels (Q13224 27-1484, other chains not shown): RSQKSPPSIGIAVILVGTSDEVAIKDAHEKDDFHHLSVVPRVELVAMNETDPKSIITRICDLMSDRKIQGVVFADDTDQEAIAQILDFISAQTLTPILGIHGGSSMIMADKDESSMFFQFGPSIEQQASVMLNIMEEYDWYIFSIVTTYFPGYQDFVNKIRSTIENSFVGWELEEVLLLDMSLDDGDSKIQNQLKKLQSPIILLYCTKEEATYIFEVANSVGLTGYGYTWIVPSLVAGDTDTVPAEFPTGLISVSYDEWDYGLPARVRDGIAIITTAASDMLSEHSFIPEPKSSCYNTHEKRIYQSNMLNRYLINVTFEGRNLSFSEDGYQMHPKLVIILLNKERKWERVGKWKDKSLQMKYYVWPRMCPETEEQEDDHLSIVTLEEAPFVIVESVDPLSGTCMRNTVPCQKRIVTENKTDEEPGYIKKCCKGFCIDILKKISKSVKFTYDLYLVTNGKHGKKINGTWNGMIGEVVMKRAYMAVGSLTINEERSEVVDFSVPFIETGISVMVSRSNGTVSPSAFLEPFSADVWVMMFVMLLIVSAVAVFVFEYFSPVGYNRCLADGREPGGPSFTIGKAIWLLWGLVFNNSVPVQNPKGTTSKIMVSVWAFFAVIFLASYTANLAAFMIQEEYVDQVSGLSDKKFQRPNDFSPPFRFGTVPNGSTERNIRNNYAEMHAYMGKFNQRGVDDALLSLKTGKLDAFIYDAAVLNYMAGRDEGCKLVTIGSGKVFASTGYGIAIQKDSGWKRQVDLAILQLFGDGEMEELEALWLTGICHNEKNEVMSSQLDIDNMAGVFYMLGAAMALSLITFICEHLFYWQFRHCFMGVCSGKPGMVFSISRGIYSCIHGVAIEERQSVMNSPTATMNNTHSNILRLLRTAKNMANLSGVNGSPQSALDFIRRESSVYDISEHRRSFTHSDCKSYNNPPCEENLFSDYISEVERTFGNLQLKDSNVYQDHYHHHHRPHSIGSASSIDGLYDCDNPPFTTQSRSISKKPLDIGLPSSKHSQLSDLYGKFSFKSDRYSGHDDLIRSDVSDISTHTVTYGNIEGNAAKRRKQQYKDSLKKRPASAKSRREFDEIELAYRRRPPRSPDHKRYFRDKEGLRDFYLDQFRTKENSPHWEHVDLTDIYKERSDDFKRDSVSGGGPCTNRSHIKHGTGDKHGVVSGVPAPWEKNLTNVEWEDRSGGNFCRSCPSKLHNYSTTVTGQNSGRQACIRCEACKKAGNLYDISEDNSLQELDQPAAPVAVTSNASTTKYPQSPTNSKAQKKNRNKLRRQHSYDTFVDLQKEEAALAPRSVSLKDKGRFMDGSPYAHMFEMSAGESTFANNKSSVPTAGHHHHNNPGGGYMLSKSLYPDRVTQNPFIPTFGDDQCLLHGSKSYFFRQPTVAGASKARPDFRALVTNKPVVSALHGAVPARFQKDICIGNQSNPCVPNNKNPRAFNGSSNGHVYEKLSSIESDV

In the assay the target is cloned human NR1/NR2B ion channels (Homo sapiens (Human), UniProt Q05586+Q13224). The assay is described as follows: HNR2BC: effects of test articles on cloned human NR1/NR2B ion channels expressed in mammalian cells (FLIPR calcium flux). To be noted: cloned human NR1/NR2B ion channels, Table 5. The class given is cell-based. The essentials:
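Compounds were added to dye-loaded cells for 5 min with fluorescence monitored for agonism, followed by co-agonists (glutamate ~EC80, glycine 10 μM saturating) for 5 min. Cells stably expressed inducible human NR1/NR2B, and the buffer was pH 7.4. The FLIPR Ca2+ flux signal was normalized against control wells.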
A general note: Calcium flux is commonly read through the fluorescence of an indicator in the cells.
By IC50 is commonly meant the concentration that gives 50% inhibition. Take `Cc1c(F)ccc(-c2cnc3ccn(CC(=O)N(C)C)c3c2)c1F` [Example 447, 2-[6-(2,4-Difluoro-3-methyl-phenyl)pyrrolo[3,2-b]pyridin-1-yl]-N,N-dimethyl-acetamide]: the IC50 is 20 nM.
The figure for `CN(C)C(=O)Cn1ccc2ncc(-c3cccc(Cl)c3F)cc21` [Example 448, 2-[6-(3-Chloro-2-fluoro-phenyl)pyrrolo[3,2-b]pyridin-1-yl]-N,N-dimethyl-acetamide] is 20 nM.
As for `CCc1cccc(-c2cnc3ccn(CC(=O)N(C)C)c3c2)c1` [Example 449, 2-[6-(3-Ethylphenyl)pyrrolo[3,2-b]pyridin-1-yl]-N,N-dimethyl-acetamide], the figure is 63.1 nM.
As for `CN(C)C(=O)Cn1ccc2ncc(-c3cccc(F)c3)cc21` [Example 450, 2-[6-(3-Fluorophenyl)pyrrolo[3,2-b]pyridin-1-yl]-N,N-dimethyl-acetamide], the figure is 39.8 nM; as for `Cc1cccc(-c2cnc3ccn(CC(=O)N4CCC4)c3c2)c1F` [Example 451, 1-(Azetidin-1-yl)-2-[6-(2-fluoro-3-methyl-phenyl)pyrrolo[3,2-b]pyridin-1-yl]ethanone], 50.1 nM; as for `Cc1c(F)ccc(-c2cnc3ccn(CC(=O)N4CCC4)c3c2)c1F` [Example 452, 1-(Azetidin-1-yl)-2-[6-(2,4-difluoro-3-methyl-phenyl)pyrrolo[3,2-b]pyridin-1-yl]ethanone], 25.1 nM.
Consider `O=C(Cn1ccc2ncc(-c3cccc(Cl)c3F)cc21)N1CCC1` [Example 453, 1-(Azetidin-1-yl)-2-[6-(3-chloro-2-fluoro-phenyl)pyrrolo[3,2-b]pyridin-1-yl]ethanone], for which the IC50 was 25.1 nM.
As for `Cc1cccc(-c2cnc3ccn(CC(=O)N4CC(F)C4)c3c2)c1F` [Example 454, 1-(3-Fluoroazetidin-1-yl)-2-[6-(2-fluoro-3-methyl-phenyl)pyrrolo[3,2-b]pyridin-1-yl]ethanone], the figure is 25.1 nM; as for `O=C(Cn1ccc2ncc(-c3ccc(F)c(F)c3F)cc21)N1CC(F)C1` [Example 455, 1-(3-Fluoroazetidin-1-yl)-2-[6-(2,3,4-trifluorophenyl)pyrrolo[3,2-b]pyridin-1-yl]ethanone], 31.6 nM.
As for `O=C(Cn1ccc2ncc(-c3ccc(F)c(Cl)c3)cc21)N1CCC1` [Example 456, 1-(Azetidin-1-yl)-2-[6-(3-chloro-4-fluoro-phenyl)pyrrolo[3,2-b]pyridin-1-yl]ethanone], the figure is 63.1 nM.
The figure for `O=C(Cn1ccc2ncc(-c3ccccc3F)cc21)N1CC(F)C1` [Example 457, 1-(3-Fluoroazetidin-1-yl)-2-[6-(2-fluorophenyl)pyrrolo[3,2-b]pyridin-1-yl]ethanone] is 15.8 nM; for `O=C(Cn1ccc2ncc(-c3cccc(C(F)F)c3)cc21)N1CC(F)C1` [Example 458, 2-[6-[3-(Difluoromethyl)phenyl]pyrrolo[3,2-b]pyridin-1-yl]-1-(3-fluoroazetidin-1-yl)ethanone] it is 398 nM; for `CCN(C)C(=O)Cn1ccc2ncc(-c3cccc(C)c3)cc21` [Example 459, N-Ethyl-N-methyl-2-[6-(m-tolyl)pyrrolo[3,2-b]pyridin-1-yl]acetamide] it is 39.8 nM.
Turning to `Cc1c(F)ccc(-c2cnc3ccn(CC(=O)N4CC(F)C4)c3c2)c1F` [Example 460, 2-[6-(2,4-Difluoro-3-methyl-phenyl)pyrrolo[3,2-b]pyridin-1-yl]-1-(3-fluoroazetidin-1-yl)ethanone], the IC50 was 63.1 nM.
As for `CCN(C)C(=O)Cn1ccc2ncc(-c3ccc(F)c(F)c3)cc21` [Example 461, 2-[6-(3,4-Difluorophenyl)pyrrolo[3,2-b]pyridin-1-yl]-N-ethyl-N-methyl-acetamide], the figure is 31.6 nM.
As for `CCN(C)C(=O)Cn1ccc2ncc(-c3cc(F)c(F)c(F)c3)cc21` [Example 462, N-Ethyl-N-methyl-2-[6-(3,4,5-trifluorophenyl)pyrrolo[3,2-b]pyridin-1-yl]acetamide], the figure is 126 nM.
For `O=C(Cn1ccc2ncc(-c3cccc(Cl)c3)cc21)N1CCC1` [Example 463, 1-(Azetidin-1-yl)-2-[6-(3-chlorophenyl)pyrrolo[3,2-b]pyridin-1-yl]ethanone], the IC50 was 100 nM.
For the compound `CCN(C)C(=O)Cn1ccc2ncc(-c3cccc(C(F)(F)F)c3F)cc21` [Example 464, N-Ethyl-2-[6-[2-fluoro-3-(trifluoromethyl)phenyl]pyrrolo[3,2-b]pyridin-1-yl]-N-methyl-acetamide], the IC50 is 12.6 nM.
As for `O=C(Cn1ccc2ncc(-c3cccc(Cl)c3)cc21)N1CC(F)C1` [Example 465, 2-[6-(3-Chlorophenyl)pyrrolo[3,2-b]pyridin-1-yl]-1-(3-fluoroazetidin-1-yl)ethanone], the figure is 79.4 nM; as for `O=C(Cn1ccc2ncc(-c3cccc(Cl)c3F)cc21)N1CC(F)C1` [Example 466, 2-[6-(3-Chloro-2-fluoro-phenyl)pyrrolo[3,2-b]pyridin-1-yl]-1-(3-fluoroazetidin-1-yl)ethanone], 20 nM; as for `O=C(Cn1ccc2ncc(-c3ccc(F)c(Cl)c3)cc21)N1CC(F)C1` [Example 467, 2-[6-(3-Chloro-4-fluoro-phenyl)pyrrolo[3,2-b]pyridin-1-yl]-1-(3-fluoroazetidin-1-yl)ethanone], 63.1 nM.
Consider `CCN(C)C(=O)Cn1ccc2ncc(-c3ccc(F)c(C)c3F)cc21` [Example 469, 2-[6-(2,4-Difluoro-3-methyl-phenyl)pyrrolo[3,2-b]pyridin-1-yl]-N-ethyl-N-methyl-acetamide], for which the IC50 was 15.8 nM.
As for `CCN(C)C(=O)Cn1ccc2ncc(-c3cccc(C(F)(F)F)c3)cc21` [Example 470, N-Ethyl-N-methyl-2-[6-[3-(trifluoromethyl)phenyl]pyrrolo[3,2-b]pyridin-1-yl]acetamide], the figure is 200 nM.
As for `O=C(Cn1cc(F)c2ncc(-c3ccccc3F)cc21)N1CCC1` [Example 471, 1-(Azetidin-1-yl)-2-[3-fluoro-6-(2-fluorophenyl)pyrrolo[3,2-b]pyridin-1-yl]ethanone], the figure is 100 nM.
For the compound `Cc1cccc(-c2cnc3c(F)cn(CC(=O)N4CCC4)c3c2)c1F` [Example 472, 1-(Azetidin-1-yl)-2-[3-fluoro-6-(2-fluoro-3-methyl-phenyl)pyrrolo[3,2-b]pyridin-1-yl]ethanone], the 50% inhibitory concentration (IC50) is 200 nM.
The figure for `Cc1cccc(-c2cnc3c(F)cn(CC(=O)N4CCC4)c3c2)c1` [Example 473, 1-(Azetidin-1-yl)-2-[3-fluoro-6-(m-tolyl)pyrrolo[3,2-b]pyridin-1-yl]ethanone] is 31.6 nM; for `O=C(Cn1cc(F)c2ncc(-c3cc(F)cc(F)c3)cc21)N1CCC1` [Example 474, 1-(Azetidin-1-yl)-2-[6-(3,5-difluorophenyl)-3-fluoro-pyrrolo[3,2-b]pyridin-1-yl]ethanone] it is 31.6 nM.
For `O=C(Cn1cc(F)c2ncc(-c3cccc(C(F)(F)F)c3)cc21)N1CCC1` [Example 475, 1-(Azetidin-1-yl)-2-[3-fluoro-6-[3-(trifluoromethyl)phenyl]pyrrolo[3,2-b]pyridin-1-yl]ethanone], the IC50 is 25.1 nM.
As for `O=C(Cn1cc(F)c2ncc(-c3cccc(C(F)(F)F)c3F)cc21)N1CCC1` [Example 476, 1-(Azetidin-1-yl)-2-[3-fluoro-6-[2-fluoro-3-(trifluoromethyl)phenyl]pyrrolo[3,2-b]pyridin-1-yl]ethanone], the figure is 50.1 nM; as for `O=C(Cn1cc(F)c2ncc(-c3ccc(F)c(F)c3F)cc21)N1CCC1` [Example 477, 1-(Azetidin-1-yl)-2-[3-fluoro-6-(2,3,4-trifluorophenyl)pyrrolo[3,2-b]pyridin-1-yl]ethanone], 50.1 nM.
As to `O=C(Cn1cc(F)c2ncc(-c3cccc(Cl)c3)cc21)N1CCC1` [Example 478, 1-(Azetidin-1-yl)-2-[6-(3-chlorophenyl)-3-fluoro-pyrrolo[3,2-b]pyridin-1-yl]ethanone], the IC50 was 39.8 nM.
The figure for `O=C(Cn1cc(F)c2ncc(-c3cccc(Cl)c3F)cc21)N1CCC1` [Example 479, 1-(Azetidin-1-yl)-2-[6-(3-chloro-2-fluoro-phenyl)-3-fluoro-pyrrolo[3,2-b]pyridin-1-yl]ethanone] is 25.1 nM; for `Cc1c(F)ccc(-c2cnc3c(F)cn(CC(=O)N4CCC4)c3c2)c1F` [Example 480, 1-(Azetidin-1-yl)-2-[6-(2,4-difluoro-3-methyl-phenyl)-3-fluoro-pyrrolo[3,2-b]pyridin-1-yl]ethanone] it is 39.8 nM.
The figure for `O=C(Cn1cc(F)c2ncc(-c3ccc(F)c(Cl)c3)cc21)N1CCC1` [Example 481, 1-(Azetidin-1-yl)-2-[6-(3-chloro-4-fluoro-phenyl)-3-fluoro-pyrrolo[3,2-b]pyridin-1-yl]ethanone] is 25.1 nM; for `O=C(Cn1cc(F)c2ncc(-c3ccccc3)cc21)N1CC(F)C1` [Example 482, 1-(3-Fluoroazetidin-1-yl)-2-(3-fluoro-6-phenyl-pyrrolo[3,2-b]pyridin-1-yl)ethanone] it is 15.8 nM.
The figure for `Cc1cccc(-c2cnc3c(F)cn(CC(=O)N4CC(F)C4)c3c2)c1F` [Example 483, 1-(3-Fluoroazetidin-1-yl)-2-[3-fluoro-6-(2-fluoro-3-methyl-phenyl)pyrrolo[3,2-b]pyridin-1-yl]ethanone] is 63.1 nM; for `O=C(Cn1cc(F)c2ncc(-c3cccc(C(F)(F)F)c3)cc21)N1CC(F)C1` [Example 484, 1-(3-Fluoroazetidin-1-yl)-2-[3-fluoro-6-[3-(trifluoromethyl)phenyl]pyrrolo[3,2-b]pyridin-1-yl]ethanone] it is 12.6 nM; for `O=C(Cn1cc(F)c2ncc(-c3cccc(C(F)(F)F)c3F)cc21)N1CC(F)C1` [Example 485, 1-(3-Fluoroazetidin-1-yl)-2-[3-fluoro-6-[2-fluoro-3-(trifluoromethyl)phenyl]pyrrolo[3,2-b]pyridin-1-yl]ethanone] it is 39.8 nM.
